Measured values from patent US11000555B2, “Method for preparing a limax compound and therapeutic use thereof” (GUANGXI JIUFU BIOTECHNOLOGY CO., LTD, priority 2017, dated 2021).
Marks after values point to notes of the source that are not given here.

What was measured:
mice [1] = assay: Physical dependence test: induced withdrawal test for the mice; conditions: mouse, in vivo
Description: The daily doses were 25, 50, 75, 100, 125, 150 mg/kg according to the dose increasing principle, increased day by day, reached 150 mg/kg on day 6 which was adopted the same on day 7. The compound group was administered (ig) twice daily (8:00 am, 8:00 pm) at daily doses of 0.6, 1.2, 1.8, 2.4, 3.0, 3.6 g/kg. The dose increased every day from 0.6 g/kg to 3.6 g/kg on day 6 which was adopted the same on day 7. The negative control group was given (ig) the same volume of vegetable oil every day at the same time and for the same times as the compound group. On day 7, naloxone (8 mg/kg, ip) was given to each group of mice to induce withdrawal. The jump reaction within 30 min and weight change one hour before and after inducement were observed. Weight loss value=weight before inducement−weight after inducement.

mice [2] = assay: Sleeping duration induced by a threshold dose of pentobarbital sodium; format: in vivo, Kunming mice; conditions: for Sleeping duration: pentobarbital sodium 50 mg/kg ip
Description: Forty Kunming mice, half males and half females, were fasted for 12 h but free to drink water. The mice were randomly divided into four groups: a blank control group, a low does Compound group (0.4 g/kg, ig), a high dose Compound group (0.8 g/kg, ig) and a positive drug control group (Estazolam, 2 mg/kg). each group of mice was administered according to the above doses (ig), and the blank control group was given the same volume of normal saline. Forty-five minutes later, each mouse was given (ip) 50 mg/kg pentobarbital sodium, and then the sleeping duration of each group of mice was recorded (taking the disappear of righting reflex after administration as the indicator of falling asleep, and the recovery of righting reflex as the end time of the sleep).

mice [3] = assay: Oral acute toxicity test of mice (maximum dose method); format: in vivo, Kunming mice; conditions: for Weight after dosing / Weight change: 14 days observation; for Weight before dosing: test group
Description: The test group was given 10% the compound, 0.3 ml/10 g per dose, and the control group was given the same volume of vegetable oil. Each group was administered (ig) twice a day at 8:00 and 18:00, respectively, and fasting was completed three hours after the administration (ig). All the mice received the same volume of 0.3 ml/10 g per dose, amounting to 6 g/kg BW over 24 hours. The mice were given free access to water and food after administration. The body weight, food intake, water intake, general physiological indicators, behaviors and activities, psychological status and survival status were recorded for 14 days in consecutive, 3 times a day, after several times of observation within the 24 hours that followed the administration.

mice [4] = assay: Hot plate test of analgesic effect; format: in vivo, Kunming mice; conditions: for Pain threshold / Pain threshold before administration: hot plate 55° C.; for Pain threshold before administration: base line
Description: Kunming mice, female, were selected. And a selection among them was conducted prior to the test. The hot plate was adjusted to 55° C.±0.5° C., the female mice were placed on the hot plate, and the duration (in seconds) required from placing the mice on the hot plate until the mice licked their feet as the normal pain threshold of the mice. All those who licked their feet within 5 s or after 30 s and jumped were abandoned. Forty qualified mice were selected and randomly divided into 4 groups: a blank control group, a low dose Compound group, a high dose Compound group, and a positive control group, 10 mice per group. The normal pain threshold of each mouse was measured repeatedly, and the average of two measurements was taken as the pre-administration pain threshold of the mouse. Each group was then administered (at doses and by delivery routes as above), 0.2 ml per 10 g body weight. The pain threshold of each group was measured 60 min and 120 min after administration. If a mouse remained unresponsive for more than 60 seconds on the hot plate, its pain threshold was calculated as 60 seconds.

mice [5] = assay: Inducing the mice to sleep by a subthreshold dose of pentobarbital sodium; format: in vivo, Kunming mice; conditions: for Number of the mice showing disappearance of righting reflex: pentobarbital sodium 30 mg/kg ip, n = 20
Description: Eighty Kunming mice, half males and half females, were fasted for 12 h but free to drink water. The mice were randomly divided into four groups: a blank control group, a low does Compound group (0.4 g/kg, ig), a high dose Compound group (0.8 g/kg, ig) and a positive drug control group (Estazolam, 2 mg/kg). each group of mice was administered according to the above doses (ig), and the blank control group was given the same volume of normal saline. Forty-five minutes later, each mouse was given (ip) 30 mg/kg pentobarbital sodium, and the number of mice falling asleep within 15 min was recorded by taking the absence of righting reflex more than 1 min as the indicator of falling asleep.

morphine-dependent mice = assay: Therapeutic effect on naloxone-induced withdrawal symptoms of morphine-dependent mice; format: in vivo, Kunming mice; conditions: for Times of jumping reactions of mice: naloxone 8.0 mg/kg ip
Description: The model of morphine-dependent mice was replicated by the dose-increasing method. […] Group (1) was a blank control group, injected subcutaneously (sc) with normal saline (0.2 ml/10 g), and groups (2)˜(5) were used to replicate the model of morphine-dependent mice by the dose-increasing method.
The administration continued for 3 days for each group. Mice were free to drink and eat. Naloxone (8.0 mg/kg, ip) was given 1 h after administrations on d1 and d3 during the treatment to induce withdrawal symptoms, and jumping reaction in 30 min and body weights before and after the inducement were observed.

[6] = Female, 6 g/kg BW over 24 hours ig
[7] = Male, 6 g/kg BW over 24 hours ig

## CC1(C)O[C@H]2CC[C@@]3(C)[C@@H]([C@@H](O)[C@H](O)[C@@H]3[C@@](C)(O)CC[C@@H]3OC(C)(C)[C@H]4CC[C@]3(C)O4)[C@]2(C)CC[C@H]1O [the compound, limaxol A]
Mice [1]
  Behaviour of mice after administration: quiet without tail erecting reaction or excitatory movement
  Withdrawal symptoms after administration of the compound, mice: no obvious withdrawal symptoms
Mice [2]; 0.4, 0.8 g/kg, ig
  Effect on sleeping duration induced by pentobarbital sodium: significantly prolong the sleeping duration
Mice [2]; high dose 0.8 g/kg ig
  Sleeping duration: 32.8 ± 9.56*^ΔΔ min
Mice [2]; low dose 0.4 g/kg ig
  Sleeping duration: 39.5 ± 11.46**^Δ min
Mice [3]; 6 g/kg BW over 24 hours ig, 14 days of observation
  Toxic reaction: no toxic reaction occurred
Mice [3]; [6]
  Weight after dosing: 24.99 ± 1.59 g
  Weight change: 4.06 ± 2.34 g
Mice [3]; Female
  Weight before dosing: 20.93 ± 1.61 g
Mice [3]; [7]
  Weight after dosing: 26.60 ± 0.87 g
  Weight change: 6.13 ± 1.46 g
Mice [3]; Male
  Weight before dosing: 20.73 ± 1.79 g
Mice [3]; after putting to death, 14 days
  Visual observation of heart, liver, spleen, lung, kidney: no abnormality was found
Mice [3]; human adult dose 0.02 g/kg
  Maximum dose as multiple of the daily dose per the same body weight for a human adult: 300 times
Mice [3]; ig, twice within 24 hours, no death
  Maximum dose given the mice: 6000 mg/kg
Mice [3]; mouse, in vivo, po
  LD50: could not be detected
Mice [4]; 60 min, high dose 0.8 g/kg ig
  Pain threshold: 27.0 ± 11.32 s
Mice [4]; 60 min, low dose 0.4 g/kg ig
  Pain threshold: 25.4 ± 10.10 s
Mice [4]; 120 min, high dose 0.8 g/kg ig
  Pain threshold: 25.9 ± 12.52 s
Mice [4]; 120 min, low dose 0.4 g/kg ig
  Pain threshold: 29.3 ± 13.41 s
Mice [4]; high dose group
  Pain threshold before administration: 24.3 ± 5.51 s
Mice [4]; low dose group
  Pain threshold before administration: 23.7 ± 4.95 s
Mice [4]; single administration 0.4, 0.8 g/kg, ig
  Analgesic effect, hot plate test: no obvious analgesic effect
Mice [5]; 0.4, 0.8 g/kg, ig
  Effect on number of mice that fell asleep, sub-threshold pentobarbital sodium: increase the number of mice that fell asleep
Mice [5]; high dose 0.8 g/kg ig
  Number of the mice showing disappearance of righting reflex: 8 per group
Mice [5]; low dose 0.4 g/kg ig
  Number of the mice showing disappearance of righting reflex: 11 per group
morphine-dependent mice; d 1, high dose 0.8 g/kg ig
  Numbers of jumping reactions of mice (mice of n = 10): 10
  Numbers of jumping reactions of mice, percentage: 100%
  Weight change: body weights of mice before and after induced withdrawal: 0.26 ± 0.21 g
  Times of jumping reactions of mice: 35.0 ± 12.28 per 30 min
morphine-dependent mice; d 1, low dose 0.4 g/kg ig
  Numbers of jumping reactions of mice (mice of n = 10): 10
  Numbers of jumping reactions of mice, percentage: 100%
  Weight change: body weights of mice before and after induced withdrawal: 0.18 ± 0.13 g
  Times of jumping reactions of mice: 13.5 ± 10.29 per 30 min
morphine-dependent mice; d 3, high dose 0.8 g/kg ig
  Numbers of jumping reactions of mice (mice of n = 10): 10
  Numbers of jumping reactions of mice, percentage: 100%
  Weight change: body weights of mice before and after induced withdrawal: 0.43 ± 0.23 g
  Times of jumping reactions of mice: 8.5 ± 2.68 per 30 min
morphine-dependent mice; d 3, low dose 0.4 g/kg ig
  Numbers of jumping reactions of mice (mice of n = 10): 10
  Numbers of jumping reactions of mice, percentage: 100%
  Weight change: body weights of mice before and after induced withdrawal: 0.36 ± 0.28 g
  Times of jumping reactions of mice: 6.2 ± 5.86 per 30 min
morphine-dependent mice; ig, 0.4 and 0.8 g/kg
  Effect on jumping reaction during induced withdrawal: inhibited jumping reaction
  Effect on weight loss of the morphine-dependent mice: inhibited weight loss
